From PMC3397464, “Woodylides A–C, New Cytotoxic Linear Polyketides from the South China Sea Sponge Plakortis simplex” (Marine Drugs, 2012)
Converted amounts (≈) assume the structure as drawn.

What was measured:
Cytotoxicity MTT assay [1] = assay type: cell-based, human; conditions: human, HeLa cells (cervical cancer), 48 h treatment, 1 to 100 μg/mL
Description: (§1) Cytotoxicity of compound 3 against A549, HeLa, QGY-7703, and MDA231 cell lines was weaker when compared to that of 1. […] The PTP1B inhibitors are recognized as potential therapeutic agents for the treatment of type II diabetes and obesity. The cytotoxicity of compounds 1-3 against HCT-116, A549, HeLa, QGY-7703, and MDA231 cell lines was evaluated by the MTT assay as described in a previous report. Briefly, compounds were solubilized in DMSO with the working concentration of test substances ranging from 1 to 100 μg/mL. Cells at the exponential growth phase were harvested and seeded into 96-well plates. After incubation for 24 h, the cells were treated with various concentrations of test substances for 48 h and then incubated with 1 mg/mL MTT at 37 °C for 4 h, followed by dissolving in DMSO. The produced formazan was measured by the absorbance at 570 nm on a microplate reader. The IC50 values were calculated on the basis of percentage inhibition using the linear regression method.

HeLa (cervical cancer) = assay: Cytotoxicity MTT assay; assay type: cell-based, human; conditions: 48 h treatment, 1 to 100 μg/mL
Description: as §1

Cytotoxicity MTT assay [2] = assay type: cell-based; conditions: human, 48 h treatment, 1 to 100 μg/mL
Description: as §1

[3] = system: Trichophyton rubrum (Cmccftla); assay: Antifungal evaluation, MIC (NCCLS broth dilution); assay type: cell-based; conditions: 4–7 days at 30 °C, range 1.25–640 μg/mL, read-out: Antifungal Activity T. rubrum, MIC
Description: (§2) The three new polyketides 1–3 were evaluated for antifungal activity against Cryptococcus neoformans (ATCC 90113), Candida albicans (Y0109), Trichophyton rubrum (Cmccftla) and Microsporum gypseum (Cmccfmza) (Table 2), for in vitro cytotoxic activity against human cancer cell lines, HCT-116 (colon cancer), A549 (lung carcinoma), HeLa (cervical cancer), QGY-7703 (hepatocarcinoma), and MDA231 (breast adenocarcinoma) (Table 3), and protein tyrosine phosphatase 1B (PTP1B) inhibitory activity (Table 3). […] Cytotoxicity of compound 3 against A549, HeLa, QGY-7703, and MDA231 cell lines was weaker when compared to that of 1. […] The PTP1B inhibitors are recognized as potential therapeutic agents for the treatment of type II diabetes and obesity.
(§3) Antifungal IC50 values of woodylides A–C against C. neoformans were calculated as described by Ikhlas A. Khan et al.. Amphotericin B was used as the positive control. Minimal Inhibition Concentration (MIC) values of woodylides A–C were determined against three indicators (C. albicans, T. rubrum, and M. gypseum), following the […] (NCCLS) methods. Fluconazole was used as the positive control. Briefly, samples (dissolved in DMSO) were serially diluted in 20% DMSO/saline and transferred (10 µL) in duplicate to 96 well flat bottom microplates. Bacterial strains were grown aerobically at 30 °C in SDA for 16–20 h. A set of different concentrations of compounds 1–3 prepared in RPMI 1640 were next inoculated with the microorganisms and incubated 70–74 h for C. neoformans at 35 °C, 46 h for C. albicans at 35 °C, and 4–7 days for T. rubrum and M. gypseum at 30 °C. The IC50 values were calculated by using the fit model 201 of XLfit 4.2 software.

[4] = system: Microsporum gypseum (Cmccfmza); assay: Antifungal evaluation, MIC (NCCLS broth dilution); assay type: cell-based; conditions: Nannizzia gypsea, 4–7 days at 30 °C, range 1.25–640 μg/mL
Description: as §2, §3

Candida albicans (Y0109) = assay: Antifungal evaluation, MIC (NCCLS broth dilution); assay type: cell-based; conditions: 46 h at 35 °C, range 1.25–640 μg/mL
Description: as §2, §3

[5] = system: Cryptococcus neoformans (ATCC 90113); assay: Antifungal evaluation, IC50 against C. neoformans; assay type: cell-based; conditions: RPMI 1640; for IC50: Cryptococcus neoformans, ATCC90113, incubated 70–74 h at 35 °C
Description: as §2
Optical rotations were determined with a Perkin-Elmer 341 polarimeter with 1 mm cell. IR spectra were recorded on a Bruker vector 22 spectrometer with KBr pellets. The NMR experiments were conducted on Bruker AVANCE-600 and Bruker AMX-500 instruments. HRESIMS and ESIMS were obtained on a Q-Tof micro YA019 mass spectrometer. In antifungal evaluation, IC50 values were calculated on XLfit 4.2 software (IDBS: Alameda, CA, USA, 2005). Reversed-phase HPLC was performed on YMC-Pack Pro C18 RS (5 μm) columns with a Waters 1525/2998 liquid chromatograph. Column chromatographies were carried out on silica gel 60 (200–300 mesh; Yantai, China), Sephadex LH-20 (Amersham Biosciences). TLC was carried out using HSGF 254 plates and visualized by spraying with anisaldehyde-H2SO4 reagent.
as §3

[6] = target: T1, protein tyrosine phosphatase 1B (PTP1B) (Homo sapiens, UniProt P18031); assay: PTP1B inhibitory assay (pNPP hydrolysis); assay type: biochemical; conditions: recombinant PTP1B catalytic domain, 30 °C, pH 6.5
T1 construct: The enzymatic activities of the PTP1B catalytic domain were determined at 30 °C by monitoring the hydrolysis of pNPP
T1 sequence (P18031 3-277 limits assumed): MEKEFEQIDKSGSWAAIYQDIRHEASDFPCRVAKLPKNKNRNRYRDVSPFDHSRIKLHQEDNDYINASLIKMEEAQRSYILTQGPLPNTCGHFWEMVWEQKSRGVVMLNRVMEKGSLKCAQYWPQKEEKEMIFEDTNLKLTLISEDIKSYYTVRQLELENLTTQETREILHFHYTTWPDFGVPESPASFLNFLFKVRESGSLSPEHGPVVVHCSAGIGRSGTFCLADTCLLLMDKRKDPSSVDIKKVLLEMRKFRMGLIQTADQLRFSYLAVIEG
Description: The enzymatic activities of the PTP1B catalytic domain were determined at 30 °C by monitoring the hydrolysis of pNPP.

With `CCCCC(C)CC(O)(/C=C(/CC)[C@@H](O)CC(=O)OC)CC` (some centres unmarked) [Compound 1, Woodylide A] as the molecule, how does the IC50 at 48 h (Cytotoxicity MTT assay [1]) read?
The IC50 at 48 h was 11.2 µg/mL (≈ 35.6 µM).

And the “Cytotoxicity IC50 HeLa” value (HeLa (cervical cancer))?
Its value is 11.22 µg/mL.

And the IC50 at 48 h (Cytotoxicity MTT assay [2]; A549 cells (lung carcinoma))?
Its IC50 at 48 h is 37.8 µg/mL (≈ 120 µM).

And the IC50 at 48 h (Cytotoxicity MTT assay [2]; QGY-7703 cells (hepatocarcinoma))?
Its IC50 at 48 h is 25.8 µg/mL (≈ 82 µM).

And the MIC [3]?
The MIC was 32 µg/mL (≈ 102 µM).

And the MIC [4]?
Its MIC is 32 µg/mL (≈ 102 µM).

And the MIC (Candida albicans (Y0109))?
Its MIC is 32 µg/mL (≈ 102 µM).

And the IC50 [5]?
Its IC50 is 3.67 µg/mL (≈ 11.7 µM).

For `C[C@@H]1[C@H](O)[C@@H](C)/C=C/C=C/C=C/C=C/C=C/C=C/C=C/[C@H](O[C@@H]2O[C@H](C)[C@@H](O)[C@H](N)[C@@H]2O)C[C@@H]2O[C@](O)(C[C@@H](O)C[C@@H](O)[C@H](O)CC[C@@H](O)C[C@@H](O)CC(=O)O[C@H]1C)C[C@H](O)[C@H]2C(=O)O` [Amphotericin B, reference compound], which IC50 [5] is on record?
Its IC50 is 0.35 µg/mL (≈ 0.379 µM).

What does the source list for `CCCCC(C)CC(O)(C=C(CC)C(O)CC(=O)O)CC` (centres unmarked) [Compound 3, Woodylide C]?
IC50 at 48 h (Cytotoxicity MTT assay [2]; HCT-116 cells (colon cancer)): 9.4 µg/mL (≈ 31.3 µM); MIC [3]: 32 µg/mL (≈ 107 µM); MIC [4]: 32 µg/mL (≈ 107 µM); IC50 [6]: 15.6 µM; IC50 [5]: 10.8 µg/mL (≈ 36.1 µM)

For `CCCCC(CC)CC(O)(/C=C(/CC)[C@@H](O)CC(=O)OC)CC` (some centres unmarked) [Compound 2, Woodylide B], which “Antifungal Activity C. neoformans, IC50” value ([5]; incubated 70–74 h at 35 °C) is on record?
Its value is “inactive”.

Which results are given for `OC(Cn1cncn1)(Cn1cncn1)c1ccc(F)cc1F` [Fluconazole, reference compound]?
MIC [3]: 2 µg/mL (≈ 6.53 µM); MIC [4]: 8 µg/mL (≈ 26.1 µM)
